Experiment [1] deals with T1, ALK-wt (Homo sapiens, UniProt Q9UM73).
T1 construct: purchased Carna 08-518
Kind of experiment: Biochemical kinase assay, ALK-wt kinase domain. Conditions: apparent inhibitory constant, Morrison equation; ATP 2 mM in substrate solution; read-out: ALK-wt Ki^app. The essentials: (§1)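 Apparent Ki values come from fitting initial reaction rates against inhibitor concentration to the Morrison equation. Rates were taken from the linear phase of fluorogenic substrate phosphorylation (AQT0101 for ALK and ROS1, AQT0104 for TRKA; 26 μM in substrate solution with 2 mM ATP), monitored at 485 nm over 120 min at 30° C.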

The target in experiment [2] is T2, ALK L1196M/G1202R (Homo sapiens, UniProt Q9UM73, G1202R/L1196M).
T2 construct: purchased SignalChem A19-12NG
T2 sequence (Q9UM73 1116-1392 L1196M/G1202R limits assumed): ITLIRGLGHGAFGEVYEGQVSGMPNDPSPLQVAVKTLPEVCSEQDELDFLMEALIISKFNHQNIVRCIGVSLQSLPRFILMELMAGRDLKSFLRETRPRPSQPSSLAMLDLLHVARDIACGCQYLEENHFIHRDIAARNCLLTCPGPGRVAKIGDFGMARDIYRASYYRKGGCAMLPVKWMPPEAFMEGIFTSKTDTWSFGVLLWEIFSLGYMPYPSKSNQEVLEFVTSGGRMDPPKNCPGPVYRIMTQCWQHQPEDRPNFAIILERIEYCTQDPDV
Kind of experiment: Biochemical kinase assay, ALK L1196M/G1202R kinase domain. Conditions: apparent inhibitory constant, Morrison equation; ATP 2 mM in substrate solution; read-out: ALK-L1196M-G1202R Ki^app. An outline of the steps:
as §1

Experiment [3] concerns the target T3, ROS1-wt (Homo sapiens, UniProt P08922).
T3 construct: purchased Carna 08-163
Nature of the experiment: Biochemical kinase assay, ROS1-wt kinase domain. Conditions: apparent inhibitory constant, Morrison equation; ATP 2 mM in substrate solution; read-out: ROS1-wt Ki^app. An outline of the steps: (§2)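 Compounds, as 100-fold DMSO stocks, were dispensed first, then substrate mix was added (ATP 2 mM, AQT0101 26 μM, in 50 mM HEPES pH 7.5/10 mM MgCl2). Reactions ran at 30 °C with fluorescence logged every 2 min over 120 min. Apparent inhibition constants came from fitting rates to Morrison's tight-binding equation.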

Experiment [4] concerns the target T4, ROS1-G2032R (Homo sapiens, UniProt P08922, G2032R).
T4 construct: purchased SignalChem R14-12BG
Nature of the experiment: Biochemical kinase assay, ROS1-G2032R kinase domain. Conditions: apparent inhibitory constant, Morrison equation; ATP 2 mM in substrate solution; read-out: ROS1-G2032R Ki^app. The essentials:
as §2

Experiment [5] addresses T5, TRKA-wt (Homo sapiens, UniProt P04629).
T5 construct: or TRKA-wt (1 nM, BPS Bio, 40280) kinase domains in buffer; purchased BPS Bio 40280
Kind of experiment: Biochemical kinase assay, TRKA-wt kinase domain. Conditions: apparent inhibitory constant, Morrison equation; ATP 2 mM in substrate solution; read-out: TRKA-wt Ki^app. The essentials: as §1

Experiment [6] has as its target T6, Ba/F3 cells CD74-ROS1 wild-type (wt) (Homo sapiens, UniProt P08922).
T6 construct: fusion of the C-terminus of ROS1 with the N-terminus of various partner proteins; host or cells: Ba/F3 (RIKEN), retroviral pMSCV-puro; the other entry of the earlier key: CD74 (P04233, HLA class II histocompatibility antigen gamma chain)
Nature of the experiment: Ba/F3 cell proliferation assay, CD74-ROS1 wild-type. Format: cell-based. Conditions: 72 hours, CellTiter-Glo. The essentials: (§3)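 Cells seeded 1 day, then treated with 3-fold compound dilutions for 72 h; viability by CellTiter-Glo luminescence. IC50 from percent inhibition by four-parameter logistic fit.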

Experiment [7] deals with T7, Ba/F3 cells CD74-ROS1 G2032R (Homo sapiens, UniProt P08922, G2032R).
T7 construct: fusion of the C-terminus of ROS1 with the N-terminus of various partner proteins; host or cells: Ba/F3 (RIKEN), retroviral pMSCV-puro; the other entry of the earlier key: CD74 (P04233, HLA class II histocompatibility antigen gamma chain)
T7 sequence (P08922 1883-2347 G2032R limits assumed): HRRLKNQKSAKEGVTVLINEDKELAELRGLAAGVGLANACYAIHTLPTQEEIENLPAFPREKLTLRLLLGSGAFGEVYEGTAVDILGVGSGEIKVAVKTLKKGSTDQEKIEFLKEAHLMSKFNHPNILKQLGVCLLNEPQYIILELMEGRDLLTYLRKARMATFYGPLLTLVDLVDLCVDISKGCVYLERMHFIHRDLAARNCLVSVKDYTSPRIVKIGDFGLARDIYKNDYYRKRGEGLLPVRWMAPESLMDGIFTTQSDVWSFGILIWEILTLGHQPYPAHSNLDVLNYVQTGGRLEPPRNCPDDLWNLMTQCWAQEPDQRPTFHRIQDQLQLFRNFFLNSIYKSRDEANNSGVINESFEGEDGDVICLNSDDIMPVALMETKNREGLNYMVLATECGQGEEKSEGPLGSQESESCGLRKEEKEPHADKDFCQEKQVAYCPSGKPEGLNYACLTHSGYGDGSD
Kind of experiment: Ba/F3 cell proliferation assay, CD74-ROS1 G2032R. Conditions: 72 hours, CellTiter-Glo. Format: cell-based. The essentials:
as §3
Background: Cellular ATP, detected with luciferase, serves as a proxy for viable cell number.

The target of experiment [8] is T8, Ba/F3 cells EML4-ALK wt (variant 1) (Homo sapiens, UniProt Q9UM73).
T8 construct: echinoderm microtubule-associated protein-like 4 (EML4) gene and the ALK tyrosine kinase domain; host or cells: Ba/F3 (RIKEN), retroviral pMSCV-puro; the other entry of the earlier key: EML4 (Q9HC35, Echinoderm microtubule-associated protein-like 4)
T8 sequence (Q9UM73 with tags, fused parts or gaps): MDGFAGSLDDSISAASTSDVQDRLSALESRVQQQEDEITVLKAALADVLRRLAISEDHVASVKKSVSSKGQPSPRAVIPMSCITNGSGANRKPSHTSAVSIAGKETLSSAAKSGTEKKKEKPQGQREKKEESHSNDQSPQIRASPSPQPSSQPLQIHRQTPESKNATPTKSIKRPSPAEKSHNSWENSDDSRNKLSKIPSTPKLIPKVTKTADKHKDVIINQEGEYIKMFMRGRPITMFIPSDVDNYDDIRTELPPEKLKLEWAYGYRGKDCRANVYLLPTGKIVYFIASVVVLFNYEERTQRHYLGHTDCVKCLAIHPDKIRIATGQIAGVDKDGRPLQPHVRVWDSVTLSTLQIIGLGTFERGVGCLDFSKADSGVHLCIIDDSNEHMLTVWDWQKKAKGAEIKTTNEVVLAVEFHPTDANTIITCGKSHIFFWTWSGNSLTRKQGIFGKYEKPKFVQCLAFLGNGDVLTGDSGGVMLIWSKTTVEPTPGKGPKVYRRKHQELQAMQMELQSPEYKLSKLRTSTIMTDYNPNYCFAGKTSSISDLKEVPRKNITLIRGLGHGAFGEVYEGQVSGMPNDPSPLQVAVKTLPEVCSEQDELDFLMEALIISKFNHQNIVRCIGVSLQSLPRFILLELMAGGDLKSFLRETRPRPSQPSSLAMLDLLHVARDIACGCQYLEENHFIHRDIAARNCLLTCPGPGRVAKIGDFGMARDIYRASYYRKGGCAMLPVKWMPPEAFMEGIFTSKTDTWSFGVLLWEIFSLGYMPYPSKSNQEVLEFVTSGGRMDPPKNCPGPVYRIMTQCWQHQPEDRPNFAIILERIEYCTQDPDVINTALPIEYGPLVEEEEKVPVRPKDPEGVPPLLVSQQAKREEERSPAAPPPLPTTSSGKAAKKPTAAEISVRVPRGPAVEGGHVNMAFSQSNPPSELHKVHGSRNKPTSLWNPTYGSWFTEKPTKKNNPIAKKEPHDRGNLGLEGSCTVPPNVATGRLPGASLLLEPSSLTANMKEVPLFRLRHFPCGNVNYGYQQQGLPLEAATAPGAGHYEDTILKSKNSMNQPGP
Nature of the experiment: Ba/F3 cell proliferation assay, EML4-ALK wt (variant 1). The class given is cell-based. Conditions: 72 hours, CellTiter-Glo. An outline of the steps:
(§4)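 Proliferation of fusion-driven Ba/F3 monoclones (grown without IL-3, puromycin 0.8 μg/mL) is followed over 72 hours of treatment with a 3-fold compound dilution series. ATP content is read by CellTiter-Glo luminescence, and IC50 is derived by four-parameter logistic fitting of percent inhibition.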

Experiment [9] has as its target T9, Ba/F3 cells EML4-ALK L1196M/G1202R (variant 1) (Homo sapiens, UniProt Q9UM73, G1202R/L1196M).
T9 construct: echinoderm microtubule-associated protein-like 4 (EML4) gene and the ALK tyrosine kinase domain; host or cells: Ba/F3 (RIKEN), retroviral pMSCV-puro; the other entry of the earlier key: EML4 (Q9HC35, Echinoderm microtubule-associated protein-like 4)
Kind of experiment: Ba/F3 cell proliferation assay, EML4-ALK L1196M/G1202R (variant 1). Format: cell-based. Conditions: 72 hours, CellTiter-Glo. The essentials: as §4

The target of experiment [10] is T10, Ba/F3 cells TPM3-TRKA (Homo sapiens, UniProt P04629).
T10 construct: host or cells: Ba/F3 (RIKEN), retroviral pMSCV-puro; the other entry of the earlier key: TPM3 (P06753, Tropomyosin alpha-3 chain)
T10 sequence (P04629 510-796 limits assumed): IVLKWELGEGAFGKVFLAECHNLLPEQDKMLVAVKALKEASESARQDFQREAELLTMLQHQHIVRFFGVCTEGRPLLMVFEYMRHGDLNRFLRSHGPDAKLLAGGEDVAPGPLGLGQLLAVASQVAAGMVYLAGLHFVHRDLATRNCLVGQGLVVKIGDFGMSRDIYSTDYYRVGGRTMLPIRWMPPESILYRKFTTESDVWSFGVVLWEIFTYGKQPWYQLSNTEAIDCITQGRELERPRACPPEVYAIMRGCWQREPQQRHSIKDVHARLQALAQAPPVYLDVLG
Nature of the experiment: Ba/F3 cell proliferation assay, TPM3-TRKA. The class given is cell-based. Conditions: 72 hours, CellTiter-Glo, read-out: TPM3-NTRK1-wt IC50. The essentials:
as §4

Experiment [11] relates to TPM3-NTRK1-wt IC50 / primary target IC50 (e.g. CD74-ROS1-wt). Kind of experiment: TRKA selectivity in Ba/F3 cells (TRKA potency divided by primary target potency). Conditions: for TPM3-NTRK1-wt/CD74-ROS1-G2032R selectivity ratio: TRKA potency / CD74-ROS1-G2032R potency; for TPM3-NTRK1-wt/CD74-ROS1-wt selectivity ratio: TRKA potency / CD74-ROS1-wt potency; for TPM3-NTRK1-wt/EML4-ALK-L1196M-G1202R selectivity ratio: TRKA potency / EML4-ALK-L1196M-G1202R potency; for TPM3-NTRK1-wt/EML4-ALK-wt selectivity ratio: TRKA potency / EML4-ALK-wt potency. The class given is cell-based. The procedure:
TRKA selectivity was calculated by dividing a compound's TRKA potency by its primary target potency (e.g. TPM3-NTRK1-wt IC50/CD74-ROS1-wt IC50). Compound selectivity can be interpreted by binning ratio values: bin A for very high selectivity, ratio >30-fold; bin B for high selectivity, ratio >10-fold; bin C for moderate selectivity, ratio ≥1; and bin D for low selectivity, ratio <1. […] (nd=not determined).

Each structure is given as a SMILES string.

The term IC50 denotes the midpoint of a concentration-inhibition curve.

T3 sequence (P08922 1945-2222 limits assumed): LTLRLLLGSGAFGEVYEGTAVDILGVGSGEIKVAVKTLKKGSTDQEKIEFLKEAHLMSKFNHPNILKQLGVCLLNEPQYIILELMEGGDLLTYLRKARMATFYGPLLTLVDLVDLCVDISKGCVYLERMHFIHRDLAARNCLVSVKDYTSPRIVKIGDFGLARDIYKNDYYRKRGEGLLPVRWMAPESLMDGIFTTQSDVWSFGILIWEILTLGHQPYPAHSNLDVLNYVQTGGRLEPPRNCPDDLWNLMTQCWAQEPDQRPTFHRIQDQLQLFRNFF
T9 sequence (Q9UM73 with tags, fused parts or gaps L1196M/G1202R): as the sequence (Q9UM73 with tags, fused parts or gaps) above, with L635M, G641R counted along it
T4 sequence (P08922 1945-2222 G2032R limits assumed): as the sequence (P08922 1945-2222 limits assumed) above, with G88R counted along it
T6 sequence (P08922 1883-2347 limits assumed): as the sequence (P08922 1883-2347 G2032R limits assumed) above, with R150G counted along it
T1 sequence (Q9UM73 1116-1392 limits assumed): as the sequence (Q9UM73 1116-1392 L1196M/G1202R limits assumed) above, with M81L, R87G counted along it
T5 sequence (P04629 510-781 limits assumed): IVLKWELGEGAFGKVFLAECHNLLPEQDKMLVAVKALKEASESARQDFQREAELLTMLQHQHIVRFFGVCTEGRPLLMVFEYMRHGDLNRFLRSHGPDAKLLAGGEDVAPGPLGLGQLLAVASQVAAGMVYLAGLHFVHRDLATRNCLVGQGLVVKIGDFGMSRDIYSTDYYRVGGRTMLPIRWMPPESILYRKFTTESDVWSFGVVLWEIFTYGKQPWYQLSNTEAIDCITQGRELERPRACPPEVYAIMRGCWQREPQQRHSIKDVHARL

Turning to `C[C@H]1Oc2cc(cnc2N)-c2c(cnn2C2CCC2)Cn2ncnc2-c2ccc(F)cc21` [Example 39, (19R)-3-cyclobutyl-16-fluoro-19-methyl-20-oxa-3,4,8,9,11,23-hexaazapentacyclo[19.3.1.0^2,^6.0^8,^12.0^13,^18]pentacosa-1(24),2(6),4,9,11,13,15,17,21(25),22-decaen-22-amine], the Ki in experiment [1] was less than 50 nM; in experiment [2], less than 50 nM; in experiment [3], less than 50 nM; in experiment [4], less than 50 nM; in experiment [5] it was more than 500 nM. Further, the IC50 in experiment [6] was 0.1 to 50 nM; in experiment [7], 0.1 to 50 nM; in experiment [8] it was 0.1 to 50 nM; in [9], 50 to 500 nM; in experiment [10], more than 500 nM. Besides, in experiment [11], the TPM3-NTRK1-wt/CD74-ROS1-G2032R selectivity ratio result was “A (bin A for very high selectivity, ratio >30-fold)”. Moreover, the TPM3-NTRK1-wt/CD74-ROS1-wt selectivity ratio entry in [11] was “A (bin A for very high selectivity, ratio >30-fold)”. In addition, in experiment [11], the TPM3-NTRK1-wt/EML4-ALK-L1196M-G1202R selectivity ratio result is recorded as “B (bin B for high selectivity, ratio >10-fold)”. For the same molecule, the TPM3-NTRK1-wt/EML4-ALK-wt selectivity ratio result in experiment [11] is on record as “A (bin A for very high selectivity, ratio >30-fold)”.
Turning to `CCn1ncc2c1-c1cnc(N)c(c1)O[C@H](C)c1cc(F)ccc1-n1nc(C)nc1C2` [Example 40, (19R)-3-ethyl-16-fluoro-10,19-dimethyl-20-oxa-3,4,9,11,12,23-hexaazapentacyclo[19.3.1.0^2,^6.0^8,^12.0^13,^18] pentacosa 1(24),2(6),4,8,10,13,15,17,21(25),22-decaen-22-amine], the Ki in [1] was less than 50 nM; in experiment [2], less than 50 nM; in experiment [3], less than 50 nM; in experiment [4], less than 50 nM; in experiment [5], 50 to 500 nM. Moreover, the IC50 fell in the range of 0.1 to 50 nM in [6]; 0.1 to 50 nM in [7]; 0.1 to 50 nM in experiment [8]; 50 to 500 nM in experiment [9]; 50 to 500 nM in experiment [10]. In addition, the TPM3-NTRK1-wt/CD74-ROS1-G2032R selectivity ratio entry in experiment [11] was “A (bin A for very high selectivity, ratio >30-fold)”. The TPM3-NTRK1-wt/CD74-ROS1-wt selectivity ratio entry in experiment [11] is listed as “A (bin A for very high selectivity, ratio >30-fold)”. Moreover, the TPM3-NTRK1-wt/EML4-ALK-L1196M-G1202R selectivity ratio entry in experiment [11] was “C (bin C for moderate selectivity, ratio ≥1)”. The TPM3-NTRK1-wt/EML4-ALK-wt selectivity ratio entry in experiment [11] is reported as “B (bin B for high selectivity, ratio >10-fold)”.
On to `C[C@H]1Oc2cc(cnc2N)-c2c(cnn2C2CCC2)Cc2ncnn2-c2ccc(F)cc21` [Example 41, (19R)-3-cyclobutyl-16-fluoro-19-methyl-20-oxa-3,4,9,11,12,23-hexaazapentacyclo[19.3.1.0^2,^6.0^8,^12.0^13,^18]pentacosa-1(24),2(6),4,8,10,13,15,17,21(25),22-decaen-22-amine], for which the Ki in [1] was less than 50 nM; in experiment [2], less than 50 nM; in [3], less than 50 nM; in experiment [4] it was less than 50 nM; in experiment [5], more than 500 nM. For the same molecule, the IC50 in [6] is 0.1 to 50 nM; in [7] it was 0.1 to 50 nM; in [8], 0.1 to 50 nM; in experiment [9], 0.1 to 50 nM; in experiment [10], more than 500 nM. In addition, the TPM3-NTRK1-wt/CD74-ROS1-G2032R selectivity ratio result in experiment [11] is “A (bin A for very high selectivity, ratio >30-fold)”. Also, the TPM3-NTRK1-wt/CD74-ROS1-wt selectivity ratio entry in [11] is reported as “A (bin A for very high selectivity, ratio >30-fold)”. In addition, in [11], the TPM3-NTRK1-wt/EML4-ALK-L1196M-G1202R selectivity ratio result was “B (bin B for high selectivity, ratio >10-fold)”. Further, the TPM3-NTRK1-wt/EML4-ALK-wt selectivity ratio entry in [11] was “A (bin A for very high selectivity, ratio >30-fold)”.
For the molecule `CCn1ncc2c1-c1cnc(N)c(c1)O[C@H](C)c1cc(F)ccc1-n1ccnc1C2` [Example 42, (19R)-3-ethyl-16-fluoro-19-methyl-20-oxa-3,4,9,12,23-pentaazapentacyclo[19.3.1.0^2,^6.0^8,^12.0^13,^18]pentacosa-1(24),2(6),4,8,10,13,15,17,21(25),22-decaen-22-amine], the Ki in experiment [1] is less than 50 nM; in [2], less than 50 nM; in experiment [3] it was less than 50 nM; in experiment [4], less than 50 nM; in experiment [5], 50 to 500 nM. In addition, the IC50 in experiment [6] lay within 0.1 to 50 nM; in [7], 0.1 to 50 nM; in experiment [8] it was 0.1 to 50 nM; in experiment [9], 50 to 500 nM; in experiment [10], 50 to 500 nM. Also, in experiment [11], the TPM3-NTRK1-wt/CD74-ROS1-G2032R selectivity ratio entry is “A (bin A for very high selectivity, ratio >30-fold)”. Moreover, in experiment [11], the TPM3-NTRK1-wt/CD74-ROS1-wt selectivity ratio result is reported as “A (bin A for very high selectivity, ratio >30-fold)”. For the same molecule, in [11], the TPM3-NTRK1-wt/EML4-ALK-L1196M-G1202R selectivity ratio entry is recorded as “C (bin C for moderate selectivity, ratio ≥1)”. The TPM3-NTRK1-wt/EML4-ALK-wt selectivity ratio result in experiment [11] was “B (bin B for high selectivity, ratio >10-fold)”.
As for `CCc1nsc2c1-c1cnc(N)c(c1)O[C@H](C)c1cc(F)ccc1-c1ncnn1C2` [Example 44, (19R)-3-ethyl-16-fluoro-19methyl-20-oxa-5-thia-4,8,9,11,23-pentaazapentacyclo[19.3.1.0^2,^6.0^8,^12.0^13,^18]pentacosa-1(24),2(6),3,9,11,13,15,17,21(25),22-decaen-22-amine], the Ki in experiment [1] was less than 50 nM; in experiment [2], 50 to 500 nM; in experiment [3] it was less than 50 nM; in experiment [4] it was 50 to 500 nM; in experiment [5] it was more than 500 nM. Also, the IC50 in [6] is 0.1 to 50 nM; in experiment [7], 0.1 to 50 nM; in [8], 0.1 to 50 nM; in experiment [9] it was 50 to 500 nM; in experiment [10], more than 500 nM. For the same molecule, in experiment [11], the TPM3-NTRK1-wt/CD74-ROS1-G2032R selectivity ratio result is on record as “A (bin A for very high selectivity, ratio >30-fold)”. In addition, the TPM3-NTRK1-wt/CD74-ROS1-wt selectivity ratio entry in experiment [11] is given as “A (bin A for very high selectivity, ratio >30-fold)”. Further, in [11], the TPM3-NTRK1-wt/EML4-ALK-L1196M-G1202R selectivity ratio entry was “C (bin C for moderate selectivity, ratio ≥1)”. In addition, the TPM3-NTRK1-wt/EML4-ALK-wt selectivity ratio result in experiment [11] was “A (bin A for very high selectivity, ratio >30-fold)”.

Values taken from US12054498B2, “Heteroaromatic macrocyclic ether chemotherapeutic agents” (Nuvalent, Inc., priority 2020, dated 2024).
